The values that follow come from ChEMBL document CHEMBL3994622, “Design and synthesis of new RAF kinase-inhibiting antiproliferative quinoline derivatives. Part 2: Diarylurea derivatives” (Eur J Med Chem, 2017).

For experiment [1], the system named is HCT-15. In words: Growth inhibition of human HCT15 cells assessed as cell growth at 100 uM incubated for 48 hrs by sulforhodamine B assay relative to control. The format is functional. The note with it: HCT-15, 48 h, read-out: Activity.
In experiment [2] the test system is MDA-MB-468. In words: Growth inhibition of human MDA-MB-468 cells assessed as cell growth at 0.3 uM incubated for 48 hrs by sulforhodamine B assay relative to control. The format is functional. The note with it: MDA-MB-468, 48 h, read-out: Activity. (In SRB staining, fixed cells bind dye roughly in proportion to their protein.)
The test system of experiment [3] is SF-268. Put plainly: Growth inhibition of human SF268 cells assessed as cell growth at 0.05 uM incubated for 48 hrs by sulforhodamine B assay relative to control. The format is functional. The note with it: SF-268, 48 h, read-out: Activity.
The test system of experiment [4] is NCI-H23. In words: Growth inhibition of human NCI-H23 cells assessed as cell growth at 0.5 uM incubated for 48 hrs by sulforhodamine B assay relative to control. The conditions noted are these: NCI-H23, 48 h, read-out: Activity. It is filed as functional.
For experiment [5], the system named is HCC 2998. Put plainly: Growth inhibition of human HCC2998 cells assessed as cell growth at 0.5 uM incubated for 48 hrs by sulforhodamine B assay relative to control. The format is functional. The note with it: HCC 2998, 48 h, read-out: Activity.
Experiment [6] relates to RPMI-8226. In words: Growth inhibition of human RPMI8226 cells assessed as cell growth at 50 uM incubated for 48 hrs by sulforhodamine B assay relative to control. The format is functional. The note with it: RPMI-8226, 48 h, read-out: Activity.
Experiment [7] relates to CAKI-1. In words: Growth inhibition of human Caki1 cells assessed as cell growth at 0.005 uM incubated for 48 hrs by sulforhodamine B assay relative to control. The note with it: CAKI-1, 48 h, read-out: Activity. The format is functional.
For experiment [8], the system named is NCI/ADR-RES. In words: Growth inhibition of human NCI/ADR-RES cells assessed as cell growth at 50 uM incubated for 48 hrs by sulforhodamine B assay relative to control. It is filed as functional. The conditions noted are these: read-out: Activity.
Experiment [9] deals with HOP-92. Put plainly: Growth inhibition of human HOP92 cells assessed as cell growth at 5 uM incubated for 48 hrs by sulforhodamine B assay relative to control. The conditions noted are these: HOP-92, 48 h, read-out: Activity. The format is functional.
For experiment [10], the system named is MCF7. Put plainly: Growth inhibition of human MCF7 cells assessed as cell growth at 5 uM incubated for 48 hrs by sulforhodamine B assay relative to control. It is filed as functional. The note with it: MCF7, 48 h, read-out: Activity.
Experiment [11] concerns RPMI-8226. In words: Growth inhibition of human RPMI8226 cells assessed as cell growth at 5 uM incubated for 48 hrs by sulforhodamine B assay relative to control. The note with it: RPMI-8226, 48 h, read-out: Activity. The format is functional.
For experiment [12], the system named is HT-29. Put plainly: Growth inhibition of human HT-29 cells assessed as cell growth at 0.5 uM incubated for 48 hrs by sulforhodamine B assay relative to control. The note with it: HT-29, 48 h, read-out: Activity. The format is functional.
Experiment [13] concerns Malme-3M. Put plainly: Growth inhibition of human MALME-3M cells assessed as cell growth at 0.05 uM incubated for 48 hrs by sulforhodamine B assay relative to control. It is filed as functional. The note with it: read-out: Activity.
The test system of experiment [14] is DU-145. Put plainly: Growth inhibition of human DU145 cells assessed as cell growth at 5 uM incubated for 48 hrs by sulforhodamine B assay relative to control. It is filed as functional. The note with it: DU-145, 48 h, read-out: Activity.
For experiment [15], the system named is MOLT-4. In words: Growth inhibition of human MOLT4 cells assessed as cell growth at 0.005 uM incubated for 48 hrs by sulforhodamine B assay relative to control. The note with it: MOLT-4, 48 h, read-out: Activity. It is filed as functional.
The subject of experiment [16] is UACC-257. In words: Growth inhibition of human UACC257 cells assessed as cell growth at 0.005 uM incubated for 48 hrs by sulforhodamine B assay relative to control. It is filed as functional. The note with it: UACC-257, 48 h, read-out: Activity.
For experiment [17], the system named is TK-10. Put plainly: Growth inhibition of human TK10 cells assessed as cell growth at 50 uM incubated for 48 hrs by sulforhodamine B assay relative to control. The format is functional. The note with it: TK-10, 48 h, read-out: Activity.
Experiment [18] deals with OVCAR-8. In words: Growth inhibition of human OVCAR8 cells assessed as cell growth at 0.5 uM incubated for 48 hrs by sulforhodamine B assay relative to control. The format is functional. The conditions noted are these: OVCAR-8, 48 h, read-out: Activity.
For experiment [19], the system named is RXF 393. In words: Growth inhibition of human RXF393 cells assessed as cell growth at 0.5 uM incubated for 48 hrs by sulforhodamine B assay relative to control. The format is functional. The conditions noted are these: RXF 393, 48 h, read-out: Activity.
Experiment [20] relates to SK-MEL-5. Put plainly: Growth inhibition of human SK-MEL-5 cells assessed as cell growth at 50 uM incubated for 48 hrs by sulforhodamine B assay relative to control. The conditions noted are these: SK-MEL-5, 48 h, read-out: Activity. It is filed as functional.
Experiment [21] relates to BT-549. Put plainly: Growth inhibition of human BT549 cells assessed as cell growth at 0.005 uM incubated for 48 hrs by sulforhodamine B assay relative to control. The note with it: BT-549, 48 h, read-out: Activity. The format is functional.
Experiment [22] deals with SW-620. Put plainly: Growth inhibition of human SW620 cells assessed as cell growth at 0.5 uM incubated for 48 hrs by sulforhodamine B assay relative to control. The format is functional. The conditions noted are these: SW-620, 48 h, read-out: Activity.
Experiment [23] concerns OVCAR-5. Put plainly: Growth inhibition of human OVCAR5 cells assessed as cell growth at 50 uM incubated for 48 hrs by sulforhodamine B assay relative to control. It is filed as functional. The note with it: OVCAR-5, 48 h, read-out: Activity.
In experiment [24] the test system is SK-MEL-5. Put plainly: Growth inhibition of human SK-MEL-5 cells assessed as cell growth at 0.05 uM incubated for 48 hrs by sulforhodamine B assay relative to control. It is filed as functional. The note with it: SK-MEL-5, 48 h, read-out: Activity.
For experiment [25], the system named is IGROV-1. In words: Growth inhibition of human IGROV1 cells assessed as cell growth at 0.05 uM incubated for 48 hrs by sulforhodamine B assay relative to control. It is filed as functional. The conditions noted are these: IGROV-1, 48 h, read-out: Activity.
In experiment [26] the test system is KM12. In words: Growth inhibition of human KM12 cells assessed as cell growth at 0.005 uM incubated for 48 hrs by sulforhodamine B assay relative to control. It is filed as functional. The note with it: KM12, 48 h, read-out: Activity.
Experiment [27] deals with SR. In words: Growth inhibition of human SR cells assessed as cell growth at 0.05 uM incubated for 48 hrs by sulforhodamine B assay relative to control. It is filed as functional. The conditions noted are these: read-out: Activity.
Experiment [28] deals with U-251. In words: Growth inhibition of human U251 cells assessed as cell growth at 5 uM incubated for 48 hrs by sulforhodamine B assay relative to control. It is filed as functional. The conditions noted are these: U-251, 48 h, read-out: Activity.
Experiment [29] has as its system KM12. In words: Growth inhibition of human KM12 cells assessed as cell growth at 0.05 uM incubated for 48 hrs by sulforhodamine B assay relative to control. It is filed as functional. The conditions noted are these: KM12, 48 h, read-out: Activity.
Experiment [30] addresses Epidermal growth factor receptor (Homo sapiens) (UniProt P00533). In words: Inhibition of human EGFR at 10 uM using poly[Glu:Tyr] (4:1) as substrate in presence of [33P]ATP by Hotspot assay relative to control.
For experiment [31], the target named is Vascular endothelial growth factor receptor 2 (Homo sapiens) (UniProt P35968). In words: Inhibition of human KDR at 10 uM using poly[Glu:Tyr] (4:1) as substrate in presence of [33P]ATP by Hotspot assay relative to control.
Experiment [32] concerns LOX IMVI. Put plainly: Growth inhibition of human LOXIMVI cells assessed as cell growth at 30 uM incubated for 48 hrs by sulforhodamine B assay relative to control. The format is functional. The conditions noted are these: read-out: Activity.
Experiment [33] has as its target Mitogen-activated protein kinase 14 (Homo sapiens) (UniProt Q16539). In words: Inhibition of human MAPK p38allpha at 10 uM using myelin basic protein as substrate in presence of [33P]ATP by Hotspot assay relative to control.

Sequence of Epidermal growth factor receptor (Homo sapiens) (P00533 whole entry): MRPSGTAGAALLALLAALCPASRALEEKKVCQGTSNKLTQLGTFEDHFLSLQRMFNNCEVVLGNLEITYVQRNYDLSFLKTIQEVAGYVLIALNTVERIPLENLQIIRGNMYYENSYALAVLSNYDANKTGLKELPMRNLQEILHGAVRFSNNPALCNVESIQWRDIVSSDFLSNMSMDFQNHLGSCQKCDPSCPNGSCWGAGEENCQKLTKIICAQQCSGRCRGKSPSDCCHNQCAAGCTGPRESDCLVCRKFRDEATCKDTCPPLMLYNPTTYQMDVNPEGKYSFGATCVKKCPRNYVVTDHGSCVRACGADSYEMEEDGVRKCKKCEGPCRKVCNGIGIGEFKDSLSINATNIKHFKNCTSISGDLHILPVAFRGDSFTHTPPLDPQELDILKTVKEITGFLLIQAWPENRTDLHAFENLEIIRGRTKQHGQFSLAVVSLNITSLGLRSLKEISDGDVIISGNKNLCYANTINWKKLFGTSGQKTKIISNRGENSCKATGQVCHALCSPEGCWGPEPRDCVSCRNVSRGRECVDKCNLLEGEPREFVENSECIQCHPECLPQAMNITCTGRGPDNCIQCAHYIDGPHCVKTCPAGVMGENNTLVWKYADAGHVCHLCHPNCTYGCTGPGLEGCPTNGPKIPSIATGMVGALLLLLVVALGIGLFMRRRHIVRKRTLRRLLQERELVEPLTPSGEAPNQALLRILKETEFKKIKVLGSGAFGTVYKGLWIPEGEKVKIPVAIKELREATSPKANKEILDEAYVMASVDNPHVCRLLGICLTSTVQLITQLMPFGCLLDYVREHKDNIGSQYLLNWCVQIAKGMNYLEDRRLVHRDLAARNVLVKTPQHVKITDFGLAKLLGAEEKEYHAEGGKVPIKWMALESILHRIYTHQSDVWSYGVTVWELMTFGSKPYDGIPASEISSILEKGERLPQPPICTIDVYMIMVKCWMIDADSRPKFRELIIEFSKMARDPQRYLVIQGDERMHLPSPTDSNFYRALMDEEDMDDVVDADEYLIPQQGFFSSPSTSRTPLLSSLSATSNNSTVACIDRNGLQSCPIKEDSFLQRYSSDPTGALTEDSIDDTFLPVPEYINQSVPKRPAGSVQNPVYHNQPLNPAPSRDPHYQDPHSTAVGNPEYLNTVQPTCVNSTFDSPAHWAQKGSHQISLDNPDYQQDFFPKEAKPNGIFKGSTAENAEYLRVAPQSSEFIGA
Sequence of Mitogen-activated protein kinase 14 (Homo sapiens) (Q16539 whole entry): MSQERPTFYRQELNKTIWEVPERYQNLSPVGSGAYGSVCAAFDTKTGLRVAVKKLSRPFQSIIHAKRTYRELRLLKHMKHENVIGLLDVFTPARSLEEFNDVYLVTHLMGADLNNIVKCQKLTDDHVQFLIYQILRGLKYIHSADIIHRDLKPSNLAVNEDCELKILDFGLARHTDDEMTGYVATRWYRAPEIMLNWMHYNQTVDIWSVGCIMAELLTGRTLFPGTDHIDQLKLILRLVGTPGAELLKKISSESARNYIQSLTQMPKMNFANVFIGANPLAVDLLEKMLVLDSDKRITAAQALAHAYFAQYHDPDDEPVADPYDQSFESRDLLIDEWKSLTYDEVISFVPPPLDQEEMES
Sequence of Vascular endothelial growth factor receptor 2 (Homo sapiens) (P35968 whole entry): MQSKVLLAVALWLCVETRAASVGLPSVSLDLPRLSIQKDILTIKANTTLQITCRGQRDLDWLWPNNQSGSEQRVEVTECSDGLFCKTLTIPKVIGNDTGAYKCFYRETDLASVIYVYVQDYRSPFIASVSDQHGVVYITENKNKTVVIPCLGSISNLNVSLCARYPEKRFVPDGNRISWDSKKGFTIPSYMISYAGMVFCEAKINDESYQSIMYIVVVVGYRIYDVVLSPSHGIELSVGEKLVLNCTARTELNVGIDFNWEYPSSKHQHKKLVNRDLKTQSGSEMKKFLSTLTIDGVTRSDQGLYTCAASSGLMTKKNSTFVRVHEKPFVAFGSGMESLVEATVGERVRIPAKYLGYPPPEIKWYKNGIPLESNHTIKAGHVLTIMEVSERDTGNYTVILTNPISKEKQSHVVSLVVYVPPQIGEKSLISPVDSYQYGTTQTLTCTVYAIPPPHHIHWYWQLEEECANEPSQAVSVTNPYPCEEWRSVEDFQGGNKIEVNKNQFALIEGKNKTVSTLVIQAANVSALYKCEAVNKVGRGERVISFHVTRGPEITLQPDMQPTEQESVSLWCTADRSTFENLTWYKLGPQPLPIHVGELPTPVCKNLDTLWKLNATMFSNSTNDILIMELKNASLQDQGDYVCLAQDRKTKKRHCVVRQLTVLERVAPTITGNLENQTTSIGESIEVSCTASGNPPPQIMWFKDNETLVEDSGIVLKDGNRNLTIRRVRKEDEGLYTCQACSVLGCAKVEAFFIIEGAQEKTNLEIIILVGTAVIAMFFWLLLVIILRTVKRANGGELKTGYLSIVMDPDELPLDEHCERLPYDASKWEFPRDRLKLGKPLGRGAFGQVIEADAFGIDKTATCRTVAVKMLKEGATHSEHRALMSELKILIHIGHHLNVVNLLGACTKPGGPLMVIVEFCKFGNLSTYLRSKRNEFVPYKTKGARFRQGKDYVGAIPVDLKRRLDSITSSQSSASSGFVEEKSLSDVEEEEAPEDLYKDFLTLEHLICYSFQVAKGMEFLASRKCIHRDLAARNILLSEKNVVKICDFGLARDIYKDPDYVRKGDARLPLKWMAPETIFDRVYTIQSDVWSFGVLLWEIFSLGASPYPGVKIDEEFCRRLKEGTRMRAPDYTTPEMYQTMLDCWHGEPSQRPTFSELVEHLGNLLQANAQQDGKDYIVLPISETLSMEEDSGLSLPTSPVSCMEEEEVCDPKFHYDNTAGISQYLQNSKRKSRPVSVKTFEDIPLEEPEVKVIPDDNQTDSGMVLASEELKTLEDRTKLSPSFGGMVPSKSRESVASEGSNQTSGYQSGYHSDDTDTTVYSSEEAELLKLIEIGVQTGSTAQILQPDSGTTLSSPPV

On to `COc1cc2cc(Oc3ccc(NC(=O)Nc4cc(C(F)(F)F)cc(C(F)(F)F)c4)cc3)c(C)nc2cc1OC`, for which the growth at 100 µM in [1] is -88%.

In the case of `Cc1nc2cc(O)c(O)cc2cc1Oc1ccc(NC(=O)Nc2ccc(Cl)c(Cl)c2)cc1`, the growth at 0.3 µM in experiment [2] stood at 99%.

Consider `COc1cc2cc(Oc3ccc(NC(=O)Nc4cccc(C(F)(F)F)c4)cc3)c(C)nc2cc1OC`, for which the growth at 0.05 µM in experiment [3] was found to be 89%; in [13], 96%; in experiment [24], 92%; in [25], 108%; in experiment [27] it was 93%; in [29] it was 89%. Also, the growth at 0.5 µM in experiment [4] was determined as 97%; in [5], 109%; in experiment [12] it was 112%; in experiment [18], 96%; in experiment [19] it was 103%; in [22], 108%. The growth at 50 µM was -47% in experiment [6]; -56% in [8]; -46% in [17]; -100% in [20]; -44% in [23]. For the same compound, the growth at 0.005 µM in experiment [7] was determined as 98%; in experiment [15], 97%; in experiment [16], 95%; in experiment [21] it was 96%; in experiment [26] it was 90%. Moreover, the growth at 5 µM in [9] is -10%; in experiment [10], 3%; in experiment [11], -25%; in experiment [14], 32%; in experiment [28] it was 5%.

A word on the inhibition: it is the change of the read-out against control, counted positive when it falls. In the case of `COc1cc2cc(Oc3ccc(NC(=O)Nc4ccc(Cl)c(C(F)(F)F)c4)cc3)c(C)nc2cc1OC`, the inhibition was -0.3% in experiment [30], 0.83% in experiment [31] and 56.4% in experiment [33]. Also, the growth at 30 µM in [32] was -100%.
